In patent publication US7585859B2, “PDE4B inhibitors and uses therefor” (Plexxikon, Inc., priority 2004, dated 2009):
Like-named read-outs stand apart in the source and are kept apart here.

How the values were obtained:
PDE4D = biological target: T1, PDE4D (Homo sapiens, UniProt Q08499); assay: PDE4 IC50 determination by Scintillation Proximity Assay, PDE4D; type: biochemical
T1 construct: PDE4D: The catalytic domain of human PDE4B from S3 16-V692; His6 (N); thrombin cleavage site (N); made in house; host or cells: E. coli
T1 sequence (Q08499 380-756): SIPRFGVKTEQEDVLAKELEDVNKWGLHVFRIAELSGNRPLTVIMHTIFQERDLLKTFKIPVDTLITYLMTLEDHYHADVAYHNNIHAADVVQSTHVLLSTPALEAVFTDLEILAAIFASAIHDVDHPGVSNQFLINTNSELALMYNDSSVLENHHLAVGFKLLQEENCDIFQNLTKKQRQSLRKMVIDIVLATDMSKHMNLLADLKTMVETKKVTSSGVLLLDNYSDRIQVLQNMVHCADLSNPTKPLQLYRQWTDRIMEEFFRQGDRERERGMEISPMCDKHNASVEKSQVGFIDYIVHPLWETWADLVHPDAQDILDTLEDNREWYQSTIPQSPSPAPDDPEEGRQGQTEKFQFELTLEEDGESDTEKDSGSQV
Outline: (§1)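 Enzyme was added to compound and [^3H]cAMP, then incubated 30 min at 30° (PDE4B 80 ng/ml; PDE4D 4 ng/ml). Product [^3H]AMP bound to SPA beads and was counted. IC50 was fitted by non-linear regression against DMSO and roflumilast controls.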

[1] = biological target: T2, PDE4B: The catalytic domain of human PDE4B from S152-S528 (Homo sapiens, UniProt Q07343); assay: PDE4 IC50 determination by Scintillation Proximity Assay, PDE4B; type: biochemical
T2 construct: His6 (N); thrombin cleavage site (N); made in house; host or cells: E. coli
T2 sequence (Q07343 with tags, fused parts or gaps): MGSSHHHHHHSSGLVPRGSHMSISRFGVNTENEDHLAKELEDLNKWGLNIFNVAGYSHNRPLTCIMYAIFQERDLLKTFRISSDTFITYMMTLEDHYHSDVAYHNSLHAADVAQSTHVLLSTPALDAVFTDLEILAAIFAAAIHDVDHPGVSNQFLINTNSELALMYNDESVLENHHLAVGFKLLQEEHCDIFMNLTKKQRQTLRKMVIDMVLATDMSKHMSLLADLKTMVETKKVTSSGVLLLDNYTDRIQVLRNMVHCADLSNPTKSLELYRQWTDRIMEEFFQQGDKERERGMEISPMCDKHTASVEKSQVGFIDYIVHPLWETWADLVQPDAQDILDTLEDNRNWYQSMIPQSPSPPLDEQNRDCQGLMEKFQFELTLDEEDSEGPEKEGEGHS
Outline: as §1

[2] = Table 1B, Formula I compounds, read-out: IC50 PDE4D
[3] = Table 1B, Formula I compounds, read-out: IC50 PDE4B
[4] = first part of Table 2B (2-1 to 2-22), read-out: IC 50 vs. indicated assay PDE4D
[5] = first part of Table 2B (2-1 to 2-22), read-out: IC 50 vs. indicated assay PDE4B

## COc1ccc(CNc2sc(C(=O)c3ccc(C)cc3C)c(N)c2C#N)cc1OC [Compound 1-162, 4-Amino-2-(3,4-dimethoxy-benzylamino)-5-(2,4-dimethyl-benzoyl)-thiophene-3-carbonitrile]
PDE4D; [2]
  IC50: < 10 µM
[1]; [3]
  IC50: < 10 µM

## N#Cc1c(Nc2ccc(Oc3ccccc3)cc2)sc(C(=O)c2cccc(Cl)c2)c1N [Compound 1-163, 4-Amino-5-(3-chloro-benzoyl)-2-(4-phenoxy-phenylamino)-thiophene-3-carbonitrile]
PDE4D; [2]
  IC50: > 10 µM
[1]; [3]
  IC50: < 10 µM

## N#Cc1c(Nc2ccc(OC(F)F)cc2)sc(C(=O)c2ccc(OC(F)F)cc2)c1N [Compound 1-165, 4-Amino-5-(4-difluoro-methoxy-benzoyl)-2-(4-difluoromethoxy-phenylamino)-thiophene-3-carbonitrile]
PDE4D; [2]
  IC50: < 10 µM
[1]; [3]
  IC50: < 10 µM

## N#Cc1c(Nc2ccc(Cl)c(C(F)(F)F)c2)sc(C(=O)c2ccccc2)c1N [Compound 1-168, 4-Amino-5-benzoyl-2-(4-chloro-3-trifluoromethyl-phenylamino)-thiophene-3-carbonitrile]
PDE4D; [2]
  IC50: < 10 µM
[1]; [3]
  IC50: < 10 µM

## N#Cc1c(Nc2cccc([N+](=O)[O-])c2)sc(C(=O)c2ccccc2)c1N [Compound 1-170, 4-Amino-5-benzoyl-2-(3-nitro-phenylamino)-thiophene-3-carbonitrile]
PDE4D; [2]
  IC50: < 10 µM
[1]; [3]
  IC50: < 10 µM

## CCOC(=O)c1cc(C(=O)c2sc(Nc3cccc(SC)c3)c(C#N)c2N)on1 [Compound 1-176, 5-[3-Amino-4-cyano-5-(3-methylsulfanyl-phenylamino)-thiophene-2-carbonyl]-isoxazole-3-carboxylic acid ethyl ester]
PDE4D; [2]
  IC50: < 10 µM
[1]; [3]
  IC50: < 10 µM

## COc1ccc(C(=O)c2sc(NC3CC3)c(C#N)c2N)cc1 [Compound 1-178, 4-Amino-2-cyclopropylamino-5-(4-methoxy-benzoyl)-thiophene-3-carbonitrile]
PDE4D; [2]
  IC50: < 10 µM
[1]; [3]
  IC50: < 10 µM

## N#Cc1c(NC2CCCC2)sc(C(=O)C2CC2)c1N [Compound 1-179, 4-Amino-2-cyclopentylamino-5-cyclopropanecarbonyl-thiophene-3-carbonitrile]
PDE4D; [2]
  IC50: < 10 µM
[1]; [3]
  IC50: < 10 µM

## N#Cc1c(NC2CCCC2)sc(C(=O)c2ccc(Cl)cc2)c1N [Compound 1-182, 4-Amino-5-(4-chloro-benzoyl)-2-cyclopentylamino-thiophene-3-carbonitrile]
PDE4D; [2]
  IC50: > 10 µM
[1]; [3]
  IC50: < 10 µM

## COc1ccc(C(=O)c2sc(NC3CCCC3)c(C#N)c2N)cc1 [Compound 1-183, 4-Amino-2-cyclopentylamino-5-(4-methoxy-benzoyl)-thiophene-3-carbonitrile]
PDE4D; [2]
  IC50: < 10 µM
[1]; [3]
  IC50: < 10 µM

## N#Cc1c(Nc2ccc(Oc3ccccc3)cc2)sc(C(=O)C2CC2)c1N [Compound 1-184, 4-Amino-5-cyclopropanecarbonyl-2-(4-phenoxy-phenylamino)-thiophene-3-carbonitrile]
PDE4D; [2]
  IC50: < 10 µM
[1]; [3]
  IC50: < 10 µM

## N#Cc1c(Nc2ccc(Oc3ccccc3)cc2)sc(C(=O)c2ccccc2)c1N [Compound 1-185, 4-Amino-5-benzoyl-2-(4-phenoxy-phenylamino)-thiophene-3-carbonitrile]
PDE4D; [2]
  IC50: < 10 µM
[1]; [3]
  IC50: < 10 µM

## N#Cc1c(NC2CCCC2)sc(C(N)=O)c1N [Compound 1-196, 3-Amino-4-cyano-5-cyclopentylamino-thiophene-2-carboxylic acid amide]
PDE4D; [2]
  IC50: > 10 µM
[1]; [3]
  IC50: > 10 µM

## N#Cc1c(Nc2ccc(Oc3ccccc3)cc2)sc(C(N)=O)c1N [Compound 1-197, 3-Amino-4-cyano-5-(4-phenoxy-phenylamino)-thiophene-2-carboxylic acid amide]
PDE4D; [2]
  IC50: > 10 µM
[1]; [3]
  IC50: > 10 µM

## CCOC(=O)c1sc(NC2CCCC2)c(C#N)c1N [Compound 1-199, 3-Amino-4-cyano-5-cyclopentylamino-thiophene-2-carboxylic acid ethyl ester]
PDE4D; [2]
  IC50: < 10 µM
[1]; [3]
  IC50: < 10 µM

## CCOC(=O)C(=O)c1sc(NC2CCCC2)c(C#N)c1N [Compound 1-201, (3-Amino-4-cyano-5-cyclopentylamino-thiophen-2-yl)-oxo-acetic acid ethyl ester]
PDE4D; [2]
  IC50: < 10 µM
[1]; [3]
  IC50: < 10 µM

## N#Cc1c(NC2CCCC2)sc(C(=O)c2ccsc2)c1N [Compound 1-202, 4-Amino-2-cyclopentylamino-5-(thiophene-3-carbonyl)-thiophene-3-carbonitrile]
PDE4D; [2]
  IC50: < 10 µM
[1]; [3]
  IC50: < 10 µM

## N#Cc1c(NC2CCCC2)sc(C(=O)c2ccc(-c3ccccc3)s2)c1N [Compound 1-203, 4-Amino-2-cyclopentylamino-5-(5-phenyl-thiophene-2-carbonyl)-thiophene-3-carbonitrile]
PDE4D; [2]
  IC50: < 10 µM
[1]; [3]
  IC50: < 10 µM

## N#Cc1c(NC2CCCC2)sc(C(=O)c2cc(Br)no2)c1N [Compound 1-207, 4-Amino-5-(3-bromo-isoxazole-5-carbonyl)-2-cyclopentylamino-thiophene-3-carbonitrile]
PDE4D; [2]
  IC50: < 10 µM
[1]; [3]
  IC50: < 10 µM

## CC(C)Nc1sc(C(=O)c2ccc(Cl)c(Cl)c2)c(N)c1C#N [Compound 1-217, 4-Amino-5-(3,4-dichloro-benzoyl)-2-isopropylamino-thiophene-3-carbonitrile]
PDE4D; [2]
  IC50: < 10 µM
[1]; [3]
  IC50: < 10 µM

## CN1CCN(C(=O)C(=O)c2sc(NC3CCCC3)c(C#N)c2N)CC1 [Compound 1-218, 4-Amino-2-cyclopentylamino-5-[2-(4-methyl-piperazin-1-yl)-2-oxo-acetyl]-carbonitrile]
PDE4D; [2]
  IC50: > 10 µM
[1]; [3]
  IC50: > 10 µM

## CCC(CC)Nc1sc(C(=O)c2ccc(Oc3ccccc3)cc2)c(N)c1C#N [Compound 1-229, 4-Amino-2-(1-ethyl-propylamino)-5-(4-phenoxy-benzoyl)-thiophene-3-carbonitrile]
PDE4D; [2]
  IC50: < 10 µM
[1]; [3]
  IC50: < 10 µM

## CC(C)Nc1sc(C(=O)c2ccc(Oc3ccccc3)cc2)c(N)c1C#N [Compound 1-230, 4-Amino-2-isopropylamino-5-(4-phenoxy-benzoyl)-thiophene-3-carbonitrile]
PDE4D; [2]
  IC50: < 10 µM
[1]; [3]
  IC50: < 10 µM

## N#Cc1c(NC2CCCC2)sc(C(=O)c2ccc(Oc3ccccc3)cc2)c1N [Compound 1-231, 4-Amino-2-cyclopentylamino-5-(4-phenoxy-benzoyl)-thiophene-3-carbonitrile]
PDE4D; [2]
  IC50: < 10 µM
[1]; [3]
  IC50: < 10 µM

## CCC(C)Nc1sc(C(=O)c2ccc(Oc3ccccc3)cc2)c(N)c1C#N (stereo not drawn) [Compound 1-232, 4-Amino-2-sec-butylamino-5-(4-phenoxy-benzoyl)-thiophene-3-carbonitrile]
PDE4D; [2]
  IC50: < 10 µM
[1]; [3]
  IC50: < 10 µM

## Cc1sc(-c2ccccc2)cc1C(=O)c1sc(NC2CCCC2)c(C#N)c1N [Compound 1-234, 4-Amino-2-cyclopentylamino-5-(2-methyl-5-phenyl-thiophene-3-carbonyl)-thiophene-3-carbonitrile]
PDE4D; [2]
  IC50: < 10 µM
[1]; [3]
  IC50: < 10 µM

## N#Cc1c(NC2CCCC2)sc(C(=O)c2csc(-c3ccccc3)n2)c1N [Compound 1-235, 4-Amino-2-cyclopentylamino-5-(2-phenyl-thiazole-4-carbonyl)-thiophene-3-carbonitrile]
PDE4D; [2]
  IC50: < 10 µM
[1]; [3]
  IC50: < 10 µM

## CCOC(=O)c1cc(C(=O)c2sc(Nc3ccc(OC)cc3)nc2N)on1 [Compound 2-2, 5-[4-Amino-2-(4-methoxy-phenylamino)-thiazole-5-carbonyl]-isoxazole-3-carboxylic acid ethyl ester]
PDE4D; [4]
  IC50: < 10 µM
[1]; [5]
  IC50: < 10 µM

## CCOC(=O)c1cc(C(=O)c2sc(Nc3ccc(Oc4ccccc4)cc3)nc2N)on1 [Compound 2-3, 5-[4-Amino-2-(4-phenoxy-phenylamino)-thiazole-5-carbonyl]-isoxazole-3-carboxylic acid ethyl ester]
PDE4D; [4]
  IC50: > 10 µM
[1]; [5]
  IC50: > 10 µM

## CCOC(=O)c1cc(C(=O)c2sc(NC3CCCC3)nc2N)on1 [Compound 2-4, 5-(4-Amino-2-cyclopentylamino-thiazole-5-carbonyl)-isoxazole-3-carboxylic acid ethyl ester]
PDE4D; [4]
  IC50: < 10 µM
[1]; [5]
  IC50: < 10 µM

## CCOC(=O)c1cc(C(=O)c2sc(NC3CC3)nc2N)on1 [Compound 2-5, 5-(4-Amino-2-cyclopropylamino-thiazole-5-carbonyl)-isoxazole-3-carboxylic acid ethyl ester]
PDE4D; [4]
  IC50: < 10 µM
[1]; [5]
  IC50: < 10 µM

## COc1ccc(Nc2nc(N)c(C(=O)c3cc(-c4ccccc4)no3)s2)cc1 [Compound 2-7, [4-Amino-2-(4-methoxy-phenylamino)-thiazol-5-yl]-(3-phenyl-isoxazol-5-yl)-methanone]
PDE4D; [4]
  IC50: < 10 µM
[1]; [5]
  IC50: < 10 µM

## Nc1nc(NC2CC2)sc1C(=O)c1cc(-c2ccccc2)no1 [Compound 2-10, (4-Amino-2-cyclopropylamino-thiazol-5-yl)-(3-phenyl-isoxazol-5-yl)-methanone]
PDE4D; [4]
  IC50: < 10 µM
[1]; [5]
  IC50: < 10 µM

## CC(C)Nc1nc(N)c(C(=O)c2cc(-c3ccccc3)no2)s1 [Compound 2-11, (4-Amino-2-isopropylamino-thiazol-5-yl)-(3-phenyl-isoxazol-5-yl)-methanone]
PDE4D; [4]
  IC50: < 10 µM
[1]; [5]
  IC50: < 10 µM

## Nc1nc(NC2CCCC2)sc1C(=O)c1cc(-c2ccc(Cl)cc2)no1 [Compound 2-12, (4-Amino-2-cyclopentylamino-thiazol-5-yl)-[3-(4-chloro-phenyl)-isoxazol-5-yl]-methanone]
PDE4D; [4]
  IC50: < 10 µM
[1]; [5]
  IC50: < 10 µM

## CC(C)Nc1nc(N)c(C(=O)c2cc(-c3ccc(Cl)cc3)no2)s1 [Compound 2-13, (4-Amino-2-isopropylamino-thiazol-5-yl)-[3-(4-chloro-phenyl)-isoxazol-5-yl]-methanone]
PDE4D; [4]
  IC50: < 10 µM
[1]; [5]
  IC50: < 10 µM
